Source: patent publication US20240254115A1 (ACONDICIONAMIENTO TARRASENSE, priority 2021, published 2024)

How the values were obtained:
human σ1 receptor = molecular target: T1, human σ1 receptor (Homo sapiens, UniProt Q99720); experiment: Human σ1 receptor radioligand assay; details: transfected HEK-293 membranes, 5 nM [3H](+)-pentazocine, 37° C. 120 minutes; + may also stand for 1-50% inhibition at 1 or 10 μM; read-out: Binding σ-1 Ki
T1 construct: expressed in transfected cells; host or cells: HEK-293
T1 sequence (Q99720 whole entry): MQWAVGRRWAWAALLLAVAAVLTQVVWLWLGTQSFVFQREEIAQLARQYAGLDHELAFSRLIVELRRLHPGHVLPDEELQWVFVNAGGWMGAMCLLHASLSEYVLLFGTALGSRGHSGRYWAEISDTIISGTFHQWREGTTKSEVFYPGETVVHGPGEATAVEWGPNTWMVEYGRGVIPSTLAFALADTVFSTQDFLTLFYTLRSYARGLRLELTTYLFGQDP
In short: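 Ki was derived from five test concentrations, or % inhibition was measured at a single 1 or 10 μM dose, against 5 nM [3H](+)-pentazocine. Incubation was 120 min at 37° C in 50 mM Tris-HCl pH 8 with 7 μg HEK-293 membranes, and 10 μM haloperidol set non-specific binding. Bound radioactivity was counted after filtration.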

human σ2/TMEM97 receptor = molecular target: T2, human σ2/TMEM97 receptor (Homo sapiens, UniProt Q5BJF2); experiment: Binding assay to human σ2/TMEM97 receptor; details: transfected HEK-293 membranes, 10 nM [3H]-DTG, 25° C. 120 minutes; + may also stand for 1-50% inhibition at 1 or 10 μM; read-out: Binding σ-2 Ki
T2 construct: expressed in transfected cells; host or cells: HEK-293
T2 sequence (Q5BJF2 whole entry): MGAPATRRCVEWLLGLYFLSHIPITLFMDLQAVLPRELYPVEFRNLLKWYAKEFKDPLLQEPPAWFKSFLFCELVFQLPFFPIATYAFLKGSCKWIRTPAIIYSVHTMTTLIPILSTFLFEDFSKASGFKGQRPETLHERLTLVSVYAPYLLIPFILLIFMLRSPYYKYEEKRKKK
In short: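 Membranes from transfected HEK-293 cells (15 µg) were incubated with 10 nM [3H]-DTG in 50 mM Tris-HCl pH 8.0 for 120 min at 25 °C, with 10 µM haloperidol defining non-specific binding. Filtration and scintillation counting followed. Compounds tested as % inhibition at 1 or 10 µM, or at five concentrations for Ki.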

sigma-2 (σ2) site = sigma-2 (σ2) site (Homo sapiens, UniProt Q5BJF2); details: background statement; cited from earlier work
Chain of sigma-2 (σ2) site (Q5BJF2 whole entry): as above

[1] = tested on: spared nerve injury (SNI) mice; details: SNI mice model of neuropathic pain; cited from earlier work

| Compound | Ki (human σ1 receptor) | Ki (human σ2/TMEM97 receptor) | affinity for the sigma-2 (σ2) site (sigma-2 (σ2) site) | mechanical hypersensitivity [1] |
| --- | --- | --- | --- | --- |
| O=C1OCCN1c1ccc(S(=O)(=O)N2CCC3(CCN(Cc4cc(F)ccc4F)CC3)CC2)cn1 [Example 156, 3-(5-((9-(2,5-Difluorobenzyl)-3,9-diazaspiro[5.5]undecan-yl)sulfonyl)pyridin-2-yl)oxazolidin-3-2-one] | > 1000 nM | < 100 nM | – | – |
| N#Cc1cc(CN2CCC3(CC2)CCN(S(=O)(=O)c2ccc(N4CCOC4=O)nc2)CC3)ccc1F [Example 157, 2-Fluoro-5-((9-((6-(2-oxooxazolidin-3-yl)pyridin-3-yl)sulfonyl)-3,9-diazaspiro[5.5]undecan-3-yl)methyl)benzonitrile] | > 1000 nM | < 100 nM | – | – |
| O=C1OCCN1c1ccc(S(=O)(=O)N2CCCC3(CCN(CC4CCOCC4)CC3)C2)cn1 [Example 158, 3-(5-((9-((Tetrahydro-2H-pyran-4-yl)methyl)-2,9-diazaspiro[5.5]undecan-2-yl)sulfonyl)pyridin-2-yl)oxazolidin-2-one] | < 100 nM | < 100 nM | – | – |
| O=C1OCCN1c1ccc(S(=O)(=O)N2CCCC3(CCN(Cc4ccccc4F)CC3)C2)cn1 [Example 159, 3-(5-((9-(2-Fluorobenzyl)-2,9-diazaspiro[5.5]undecan-2-yl)sulfonyl)pyridin-2-yl)oxazolidin-2-one] | < 100 nM | < 100 nM | – | – |
| O=C1OCCN1c1ccc(S(=O)(=O)N2CCCC3(CCN(Cc4cc(F)ccc4F)CC3)C2)cn1 [Example 160, 3-(5-((9-(2,5-Difluorobenzyl)-2,9-diazaspiro[5.5]undecan-2-yl)sulfonyl)pyridin-2-yl)oxazolidin-2-one] | < 100 nM | < 100 nM | – | – |
| N#Cc1cc(CN2CCC3(CCCN(S(=O)(=O)c4ccc(N5CCOC5=O)nc4)C3)CC2)ccc1F [Example 161, 2-Fluoro-5-((2-((6-(2-oxooxazolidin-3-yl)pyridin-3-yl)sulfonyl)-2,9-diazaspiro[5.5]undecan-9-yl)methyl)benzonitrile] | < 100 nM | < 100 nM | – | – |
| O=C1OCCN1c1ccc(S(=O)(=O)N2CCC3(CCN(Cc4cc(F)ccc4F)CC3)C2)cn1 [Example 162, 3-(5-((8-(2,5-Difluorobenzyl)-2,8-diazaspiro[4.5]decan-2-yl)sulfonyl)pyridin-2-yl)oxazolidin-2-one] | > 1000 nM | < 100 nM | – | – |
| O=C1OCCN1c1ccc(S(=O)(=O)N2CCC3(CCN(Cc4ccccc4F)CC3)C2)cn1 [Example 163, 3-(5-((8-(2-Fluorobenzyl)-2,8-diazaspiro[4.5]decan-2-yl)sulfonyl)pyridin-2-yl)oxazolidin-2-one] | 100 to 500 nM | 100 to 500 nM | – | – |
| N#Cc1ccc(CN2CCC3(CC2)CCN(S(=O)(=O)c2ccc(N4CCOC4=O)nc2)C3)cc1F [Example 164, 2-Fluoro-4-((2-((6-(2-oxooxazolidin-3-yl)pyridin-3-yl)sulfonyl)-2,8-diazaspiro[4.5]decan-8-yl)methyl)benzonitrile] | 100 to 500 nM | 100 to 500 nM | – | – |
| N#Cc1cc(CN2CCC3(CC2)CCN(S(=O)(=O)c2ccc(N4CCOC4=O)nc2)C3)ccc1F [Example 165, 2-Fluoro-5-((2-((6-(2-oxooxazolidin-3-yl)pyridin-3-yl)sulfonyl)-2,8-diazaspiro[4.5]decan-8-yl)methyl)benzonitrile] | > 1000 nM | 100 to 500 nM | – | – |
| O=C1OCCN1c1ccc(S(=O)(=O)N2CCC3(CCN(Cc4ccccc4F)CC3)CC2)cn1 [Example 166, 3-(5-((9-(2-Fluorobenzyl)-3,9-diazaspiro[5.5]undecan-3-yl)sulfonyl)pyridin-2-yl)oxazolidin-2-one] | 500 to 1000 nM | < 100 nM | – | – |
| CN(Cc1ccccc1)[C@H]1CC[C@H](NS(=O)(=O)c2ccc(N3CCOC3=O)nc2)CC1 [Example 167, N-((1 r,4r)-4-(Benzyl(methyl)amino)cyclohexyl)-6-(2-oxooxazolidin-3-yl)pyridine-3-sulfonamide] | > 1000 nM | 100 to 500 nM | – | – |
| CN(CCC(C)(C)C)C1CCN(S(=O)(=O)c2ccc(N3CCC(F)(F)CC3)nc2)CC1 [Example 168, 1-((6-(4,4-Difluoropiperidin-1-yl)pyridin-3-yl)sulfonyl)-N-(3,3-dimethylbutyl)-N-methylpiperidin-4-amine] | < 100 nM | < 100 nM | – | – |
| CN(CC1CCOCC1)C1CCN(S(=O)(=O)c2ccc(N3CCC(F)(F)CC3)nc2)CC1 [Example 169, 1-((6-(4,4-Difluoropiperidin-1-yl)pyridin-3-yl)sulfonyl)-N-methyl-N-((tetrahydro-2H-pyran-4-yl)methyl)piperidin-4-amine] | 100 to 500 nM | < 100 nM | – | – |
| O=S(=O)(c1ccc(N2CCC(F)(F)CC2)nc1)N1CCC(NCc2ccccc2)CC1 [Example 170] | > 1000 nM | < 100 nM | – | – |
| CN(Cc1ccc(C#N)cc1F)C1CCN(S(=O)(=O)c2ccc(N3CCC(F)(F)CC3)nc2)CC1 [Example 171, 4-(((1-((6-(4,4-Difluoropiperidin-1-yl)pyridin-3-yl)sulfonyl)piperidin-4-yl)(methyl)amino)methyl)-3-fluorobenzonitrile] | > 1000 nM | < 100 nM | – | – |
| CN(Cc1ccccc1F)C1CCN(S(=O)(=O)c2ccc(N3CCC(F)(F)CC3)nc2)CC1 [Example 172, 1-((6-(4,4-Difluoropiperidin-1-yl)pyridin-3-yl)sulfonyl)-N-(2-fluorobenzyl)-N-methylpiperidin-4-amine] | < 100 nM | < 100 nM | – | – |
| CN(Cc1ccc(C#N)c(F)c1)C1CCN(S(=O)(=O)c2ccc(N3CCC(F)(F)CC3)nc2)CC1 [Example 173, 4-(((1-((6-(4,4-Difluoropiperidin-1-yl)pyridin-3-yl)sulfonyl)piperidin-4-yl)(methyl)amino)methyl)-2-fluorobenzonitrile] | > 1000 nM | < 100 nM | – | – |
| CN(Cc1cc(F)ccc1F)C1CCN(S(=O)(=O)c2ccc(N3CCC(F)(F)CC3)nc2)CC1 [Example 174, N-(2,5-Difluorobenzyl)-1-((6-(4,4-difluoropiperidin-1-yl)pyridin-3-yl)sulfonyl)-N-methylpiperidin-4-amine] | 100 to 500 nM | 100 to 500 nM | – | – |
| CN(Cc1ccccc1)[C@H]1CC[C@H](NS(=O)(=O)c2ccc(N3CCC(F)(F)CC3)nc2)CC1 [Example 175, N-((1r,4r)-4-(Benzyl(methyl)amino)cyclohexyl)-6-(4,4-difluoropiperidin-1-yl)pyridine-3-sulfonamide] | 100 to 500 nM | < 100 nM | – | – |
| CN(Cc1ccccc1)[C@H]1CC[C@H](NS(=O)(=O)c2ccc(N3CCC4(CCCO4)CC3)nc2)CC1 [Example 176, N-((1r,4r)-4-(Benzyl(meth-yl)amino)cyclohexyl)-6-(1-oxa-8-azaspiro[4.5]decan-8-yl)pyridine-3-sulfonamide] | > 1000 nM | < 100 nM | – | – |
| CN(CC1CCOCC1)[C@H]1CC[C@H](NS(=O)(=O)c2ccc(N3CCC4(CCCO4)CC3)nc2)CC1 [Example 177, N-((1r,4r)-4-(Methyl((tetrahydro-2H-pyran-4-yl)methyl)amino)cyclohexyl)-6-(1-oxa-8-azaspiro[4.5]decan-8-yl)pyridine-3-sulfonamide] | > 1000 nM | < 100 nM | – | – |
| CN(Cc1ccccc1F)[C@H]1CC[C@H](NS(=O)(=O)c2ccc(N3CCC4(CCCO4)CC3)nc2)CC1 [Example 178, N-((1r,4r)-4-((2-Fluorobenz-yl)(methyl)amino)cyclohexyl)-6-(1-oxa-8-azaspiro[4.5]decan-8-yl)pyridine-3-sulfonamide] | > 1000 nM | < 100 nM | – | – |
| CN(Cc1cc(F)ccc1F)[C@H]1CC[C@H](NS(=O)(=O)c2ccc(N3CCC4(CCOC4)CC3)nc2)CC1 [Example 179, N-((1r,4r)-4-((2,5-Difluoro-benzyl)(methyl)amino)cyclohexyl)-6-(2-oxa-8-azaspiro[4.5]decan-8-yl)pyridine-3-sulfonamide] | > 1000 nM | < 100 nM | – | – |
| CN(Cc1ccc(F)c(F)c1)[C@H]1CC[C@H](NS(=O)(=O)c2ccc(N3CCC4(CCOC4)CC3)nc2)CC1 [Example 180, N-((1r,4r)-4-((3,4-Difluoro-benzyl)(methyl)amino)cyclohexyl)-6-(2-oxa-8-azaspiro[4.5]decan-8-yl)pyridine-3-sulfonamide] | > 1000 nM | < 100 nM | – | – |
| CN(CCC(C)(C)C)[C@H]1CC[C@H](NS(=O)(=O)c2ccc(N3CCC4(CCOC4)CC3)nc2)CC1 [Example 181, N-((1r,4r)-4-((3,3-Dimethylbut-yl)(methyl)amino)cyclohexyl)-6-(2-oxa-8-azaspiro[4.5]decan-8-yl)pyridine-3-sulfonamide] | 500 to 1000 nM | < 100 nM | – | – |
| CN(CC(C)(C)C)[C@H]1CC[C@H](NS(=O)(=O)c2ccc(N3CCC4(CCOC4)CC3)nc2)CC1 [Example 182, N-((1r,4r)-4-(Methyl(neopentyl)a-mino)cyclohexyl)-6-(2-oxa-8-azaspiro[4.5]decan-8-yl)pyridine-3-sulfonamide] | > 1000 nM | 500 to 1000 nM | – | – |
| CN(CC1CCOCC1)[C@H]1CC[C@H](NS(=O)(=O)c2ccc(N3CCC4(CCOC4)CC3)nc2)CC1 [Example 183, N-((1r,4r)-4-(Methyl((tetrahydro-2H-pyran-4-yl)methyl)amino)cyclohexyl)-6-(2-oxa-8-azaspiro[4.5]decan-8-yl)pyridine-3-sulfonamide] | 500 to 1000 nM | 500 to 1000 nM | – | – |
| (+)-SKF-10047 | – | – | micromolar affinity | – |
| UKH-1114 | – | – | – | relieved mechanical hypersensitivity |
